Experimental data taken from ChEMBL document CHEMBL3751797, “Discovery of TRAF-2 and NCK-interacting kinase (TNIK) inhibitors by ligand-based virtual screening methods” (Medchemcomm, 2015).

How the values were obtained:
[1] = biological target: T1, TRAF2 and NCK-interacting protein kinase (Homo sapiens, UniProt Q9UKE5); test: Inhibition of recombinant TNIK (unknown origin) using LRRKtide as substrate at 10 uM after 1 hr in presence of 30 uM ATP
Target sequence in this assay (Q9UKE5 whole entry, looked up): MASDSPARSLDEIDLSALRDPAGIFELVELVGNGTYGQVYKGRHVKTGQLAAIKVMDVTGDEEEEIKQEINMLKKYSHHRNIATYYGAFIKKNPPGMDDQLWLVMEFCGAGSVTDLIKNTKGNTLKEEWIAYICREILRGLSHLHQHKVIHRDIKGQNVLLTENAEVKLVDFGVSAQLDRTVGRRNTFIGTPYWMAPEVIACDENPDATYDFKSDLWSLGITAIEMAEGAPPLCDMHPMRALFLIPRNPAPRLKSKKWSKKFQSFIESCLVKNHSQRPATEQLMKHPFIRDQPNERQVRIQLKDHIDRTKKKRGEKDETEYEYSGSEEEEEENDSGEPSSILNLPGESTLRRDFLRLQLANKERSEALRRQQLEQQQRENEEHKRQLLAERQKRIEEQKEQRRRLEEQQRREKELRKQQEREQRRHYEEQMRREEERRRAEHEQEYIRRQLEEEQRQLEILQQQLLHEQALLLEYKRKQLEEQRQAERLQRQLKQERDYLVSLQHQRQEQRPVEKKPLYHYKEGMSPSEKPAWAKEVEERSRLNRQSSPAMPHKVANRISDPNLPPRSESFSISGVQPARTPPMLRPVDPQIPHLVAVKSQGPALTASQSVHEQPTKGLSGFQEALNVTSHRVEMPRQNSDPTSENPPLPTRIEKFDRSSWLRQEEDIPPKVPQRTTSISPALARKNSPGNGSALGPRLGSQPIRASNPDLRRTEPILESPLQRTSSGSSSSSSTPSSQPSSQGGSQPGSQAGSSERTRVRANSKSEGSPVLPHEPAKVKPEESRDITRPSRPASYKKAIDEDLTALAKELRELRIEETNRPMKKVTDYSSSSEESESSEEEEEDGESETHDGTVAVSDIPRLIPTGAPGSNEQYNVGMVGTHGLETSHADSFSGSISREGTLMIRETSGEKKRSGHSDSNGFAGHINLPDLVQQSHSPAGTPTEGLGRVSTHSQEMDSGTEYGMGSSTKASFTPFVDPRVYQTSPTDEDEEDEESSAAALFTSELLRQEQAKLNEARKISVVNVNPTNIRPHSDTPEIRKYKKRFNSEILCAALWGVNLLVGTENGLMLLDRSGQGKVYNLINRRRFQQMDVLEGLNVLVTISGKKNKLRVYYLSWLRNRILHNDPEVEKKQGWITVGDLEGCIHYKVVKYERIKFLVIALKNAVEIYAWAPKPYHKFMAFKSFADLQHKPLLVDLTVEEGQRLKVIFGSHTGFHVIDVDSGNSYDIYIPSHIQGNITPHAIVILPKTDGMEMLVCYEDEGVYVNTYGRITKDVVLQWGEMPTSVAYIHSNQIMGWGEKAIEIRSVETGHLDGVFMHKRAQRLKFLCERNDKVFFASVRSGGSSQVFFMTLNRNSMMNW

[2] = biological target: T1, TRAF2 and NCK-interacting protein kinase; test: Inhibition of recombinant TNIK (unknown origin) using LRRKtide as substrate after 1 hr in presence of 30 uM ATP
Target sequence in this assay (Q9UKE5 whole entry): as the sequence (Q9UKE5 whole entry, looked up) above

[3] = biological target: ALK tyrosine kinase receptor (Homo sapiens) (UniProt Q9UM73); test: Inhibition of human ALK using IGF-1Rtide as substrate at 10 uM after 2 hrs in presence of 30 uM ATP
[4] = biological target: T2, Aurora kinase A (Homo sapiens) (UniProt O14965); test: Inhibition of human AURA using kemptide as substrate at 10 uM after 1 hr in presence of 30 uM ATP
T2 sequence (whole entry): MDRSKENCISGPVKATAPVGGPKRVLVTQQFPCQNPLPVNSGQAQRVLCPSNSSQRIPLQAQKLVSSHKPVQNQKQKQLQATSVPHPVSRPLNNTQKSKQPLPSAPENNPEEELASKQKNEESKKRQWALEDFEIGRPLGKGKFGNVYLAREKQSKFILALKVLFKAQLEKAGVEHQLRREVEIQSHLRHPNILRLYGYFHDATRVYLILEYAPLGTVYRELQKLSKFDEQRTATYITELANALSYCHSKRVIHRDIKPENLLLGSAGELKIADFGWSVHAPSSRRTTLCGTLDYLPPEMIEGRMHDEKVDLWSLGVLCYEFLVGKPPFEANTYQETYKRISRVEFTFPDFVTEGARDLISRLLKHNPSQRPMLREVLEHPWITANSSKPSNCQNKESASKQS

[5] = biological target: Tyrosine-protein kinase BTK (Homo sapiens) (UniProt Q06187); test: Inhibition of human BTK using srctide as substrate at 10 uM after 1 hr in presence of 30 uM ATP
[6] = biological target: Epidermal growth factor receptor (Homo sapiens) (UniProt P00533); test: Inhibition of human EGFR using srctide as substrate at 10 uM after 1 hr in presence of 30 uM ATP
[7] = biological target: Fibroblast growth factor receptor 1 (Homo sapiens) (UniProt P11362); test: Inhibition of human FGFR1 using IGF-1Rtide as substrate at 10 uM after 1 hr in presence of 30 uM ATP
[8] = biological target: Fibroblast growth factor receptor 2 (Homo sapiens) (UniProt P21802); test: Inhibition of human FGFR2 using IGF-1Rtide as substrate at 10 uM after 1 hr in presence of 30 uM ATP
[9] = biological target: Receptor-type tyrosine-protein kinase FLT3 (Homo sapiens) (UniProt P36888); test: Inhibition of human FLT3 using srctide as substrate at 10 uM after 1 hr in presence of 30 uM ATP
[10] = biological target: Glycogen synthase kinase-3 (Homo sapiens) (UniProt P49840+P49841); test: Inhibition of human GSK3 using GSM as substrate at 10 uM after 1.5 hrs in presence of 30 uM ATP; type: protein assay
[11] = biological target: Insulin-like growth factor 1 receptor (Homo sapiens) (UniProt P08069); test: Inhibition of human IGF1R at 10 uM in presence of 30 uM ATP
[12] = biological target: Tyrosine-protein kinase JAK2 (Homo sapiens) (UniProt O60674); test: Inhibition of human JAK2 using IGF-1Rtide as substrate at 10 uM after 1 hr in presence of 30 uM ATP
[13] = biological target: Vascular endothelial growth factor receptor 2 (Homo sapiens) (UniProt P35968); test: Inhibition of human KDR using srctide as substrate at 10 uM after 1 hr in presence of 30 uM ATP
[14] = biological target: Platelet-derived growth factor receptor beta (Homo sapiens) (UniProt P09619); test: Inhibition of human PDGFRbeta using srctide as substrate at 10 uM after 1 hr in presence of 30 uM ATP
[15] = biological target: Serine/threonine-protein kinase pim-1 (Homo sapiens) (UniProt P11309); test: Inhibition of human PIM1 using S6K as substrate at 10 uM after 1 hr in presence of 30 uM ATP
[16] = biological target: Tyrosine-protein kinase SYK (Homo sapiens) (UniProt P43405); test: Inhibition of human SYK using srctide as substrate at 10 uM after 1 hr in presence of 30 uM ATP
NCI-H1703 = test: Cytotoxicity against human NCI-H1703 cells transfected with lentiviral vector 7TFP assessed as cell viability at 10 uM after 72 hrs by ATPlite assay; type: cell-based; conditions: nci-h1703, 72 h
[17] = biological target: T1, TRAF2 and NCK-interacting protein kinase; test: Competitive inhibition of recombinant TNIK (unknown origin) using LRRKtide as substrate after 1 hr in presence of 3 uM ATP
Target sequence in this assay (Q9UKE5 whole entry): as the sequence (Q9UKE5 whole entry, looked up) above

[18] = biological target: T1, TRAF2 and NCK-interacting protein kinase; test: Competitive inhibition of recombinant TNIK (unknown origin) using LRRKtide as substrate after 1 hr in presence of 30 uM ATP
Target sequence in this assay (Q9UKE5 whole entry): as the sequence (Q9UKE5 whole entry, looked up) above

[19] = biological target: T1, TRAF2 and NCK-interacting protein kinase; test: Competitive inhibition of recombinant TNIK (unknown origin) using LRRKtide as substrate after 1 hr in presence of 300 uM ATP
Target sequence in this assay (Q9UKE5 whole entry): as the sequence (Q9UKE5 whole entry, looked up) above

[20] = biological target: Phosphatidylinositol 4,5-bisphosphate 3-kinase catalytic subunit alpha isoform (Homo sapiens) (UniProt P42336); test: Inhibition of human PI3Kalpha using PIP2 as substrate at 10 uM after 1 hr in presence of 30 uM ATP

Chain of Receptor-type tyrosine-protein kinase FLT3 (Homo sapiens) (P36888 whole entry): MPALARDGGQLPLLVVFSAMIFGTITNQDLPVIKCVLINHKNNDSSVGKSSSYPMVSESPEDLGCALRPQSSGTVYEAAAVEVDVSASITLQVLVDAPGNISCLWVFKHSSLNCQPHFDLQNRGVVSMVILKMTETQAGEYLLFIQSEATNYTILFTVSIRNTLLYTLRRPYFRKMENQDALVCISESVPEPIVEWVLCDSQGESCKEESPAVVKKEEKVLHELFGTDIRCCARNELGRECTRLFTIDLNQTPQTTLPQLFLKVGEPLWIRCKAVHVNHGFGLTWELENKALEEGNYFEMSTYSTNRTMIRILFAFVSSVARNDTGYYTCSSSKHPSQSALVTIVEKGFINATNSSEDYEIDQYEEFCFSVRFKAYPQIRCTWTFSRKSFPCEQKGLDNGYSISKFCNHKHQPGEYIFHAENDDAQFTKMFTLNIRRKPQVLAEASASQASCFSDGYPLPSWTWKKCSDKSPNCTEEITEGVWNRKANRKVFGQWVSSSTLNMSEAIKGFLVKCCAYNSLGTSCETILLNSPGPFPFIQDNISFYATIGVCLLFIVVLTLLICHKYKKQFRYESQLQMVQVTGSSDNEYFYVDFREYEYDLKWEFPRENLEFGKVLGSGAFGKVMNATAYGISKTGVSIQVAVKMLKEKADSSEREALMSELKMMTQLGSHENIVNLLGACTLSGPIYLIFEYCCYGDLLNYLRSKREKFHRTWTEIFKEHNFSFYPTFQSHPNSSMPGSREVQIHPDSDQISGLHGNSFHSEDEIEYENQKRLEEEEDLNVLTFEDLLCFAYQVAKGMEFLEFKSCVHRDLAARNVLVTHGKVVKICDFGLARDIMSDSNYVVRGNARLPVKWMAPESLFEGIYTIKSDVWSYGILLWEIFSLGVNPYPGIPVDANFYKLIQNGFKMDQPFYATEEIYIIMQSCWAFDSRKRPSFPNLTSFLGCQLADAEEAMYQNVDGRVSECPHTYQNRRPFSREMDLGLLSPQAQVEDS
Chain of Tyrosine-protein kinase JAK2 (Homo sapiens) (O60674 whole entry): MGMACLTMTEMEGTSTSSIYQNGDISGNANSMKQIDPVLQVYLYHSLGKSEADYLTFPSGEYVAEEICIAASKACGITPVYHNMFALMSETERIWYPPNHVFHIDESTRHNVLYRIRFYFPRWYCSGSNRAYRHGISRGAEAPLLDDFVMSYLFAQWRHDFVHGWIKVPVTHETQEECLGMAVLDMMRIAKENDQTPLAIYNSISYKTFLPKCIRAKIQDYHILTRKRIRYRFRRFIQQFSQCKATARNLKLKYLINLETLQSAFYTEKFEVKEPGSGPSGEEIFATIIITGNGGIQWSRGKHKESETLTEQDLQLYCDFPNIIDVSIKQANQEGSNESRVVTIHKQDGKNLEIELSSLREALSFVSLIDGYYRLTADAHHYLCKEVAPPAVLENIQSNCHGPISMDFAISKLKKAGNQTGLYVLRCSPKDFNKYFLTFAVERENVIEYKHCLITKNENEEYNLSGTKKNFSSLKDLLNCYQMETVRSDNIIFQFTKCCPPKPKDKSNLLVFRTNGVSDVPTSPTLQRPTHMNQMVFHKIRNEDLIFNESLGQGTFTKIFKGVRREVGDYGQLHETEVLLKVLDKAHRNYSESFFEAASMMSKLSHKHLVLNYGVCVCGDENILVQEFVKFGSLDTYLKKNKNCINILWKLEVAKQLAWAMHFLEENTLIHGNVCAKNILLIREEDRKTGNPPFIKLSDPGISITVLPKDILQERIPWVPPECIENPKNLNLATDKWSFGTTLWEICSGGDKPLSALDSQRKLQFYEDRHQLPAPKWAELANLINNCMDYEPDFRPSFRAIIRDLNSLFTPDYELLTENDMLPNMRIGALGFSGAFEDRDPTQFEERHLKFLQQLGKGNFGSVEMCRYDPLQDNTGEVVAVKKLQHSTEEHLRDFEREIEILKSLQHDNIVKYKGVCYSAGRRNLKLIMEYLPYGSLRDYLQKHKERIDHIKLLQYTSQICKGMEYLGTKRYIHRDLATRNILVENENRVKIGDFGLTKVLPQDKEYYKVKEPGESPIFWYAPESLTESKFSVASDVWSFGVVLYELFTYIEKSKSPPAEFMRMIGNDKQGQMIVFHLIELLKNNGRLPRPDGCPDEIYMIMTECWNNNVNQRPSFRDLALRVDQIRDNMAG
Chain of Vascular endothelial growth factor receptor 2 (Homo sapiens) (P35968 whole entry): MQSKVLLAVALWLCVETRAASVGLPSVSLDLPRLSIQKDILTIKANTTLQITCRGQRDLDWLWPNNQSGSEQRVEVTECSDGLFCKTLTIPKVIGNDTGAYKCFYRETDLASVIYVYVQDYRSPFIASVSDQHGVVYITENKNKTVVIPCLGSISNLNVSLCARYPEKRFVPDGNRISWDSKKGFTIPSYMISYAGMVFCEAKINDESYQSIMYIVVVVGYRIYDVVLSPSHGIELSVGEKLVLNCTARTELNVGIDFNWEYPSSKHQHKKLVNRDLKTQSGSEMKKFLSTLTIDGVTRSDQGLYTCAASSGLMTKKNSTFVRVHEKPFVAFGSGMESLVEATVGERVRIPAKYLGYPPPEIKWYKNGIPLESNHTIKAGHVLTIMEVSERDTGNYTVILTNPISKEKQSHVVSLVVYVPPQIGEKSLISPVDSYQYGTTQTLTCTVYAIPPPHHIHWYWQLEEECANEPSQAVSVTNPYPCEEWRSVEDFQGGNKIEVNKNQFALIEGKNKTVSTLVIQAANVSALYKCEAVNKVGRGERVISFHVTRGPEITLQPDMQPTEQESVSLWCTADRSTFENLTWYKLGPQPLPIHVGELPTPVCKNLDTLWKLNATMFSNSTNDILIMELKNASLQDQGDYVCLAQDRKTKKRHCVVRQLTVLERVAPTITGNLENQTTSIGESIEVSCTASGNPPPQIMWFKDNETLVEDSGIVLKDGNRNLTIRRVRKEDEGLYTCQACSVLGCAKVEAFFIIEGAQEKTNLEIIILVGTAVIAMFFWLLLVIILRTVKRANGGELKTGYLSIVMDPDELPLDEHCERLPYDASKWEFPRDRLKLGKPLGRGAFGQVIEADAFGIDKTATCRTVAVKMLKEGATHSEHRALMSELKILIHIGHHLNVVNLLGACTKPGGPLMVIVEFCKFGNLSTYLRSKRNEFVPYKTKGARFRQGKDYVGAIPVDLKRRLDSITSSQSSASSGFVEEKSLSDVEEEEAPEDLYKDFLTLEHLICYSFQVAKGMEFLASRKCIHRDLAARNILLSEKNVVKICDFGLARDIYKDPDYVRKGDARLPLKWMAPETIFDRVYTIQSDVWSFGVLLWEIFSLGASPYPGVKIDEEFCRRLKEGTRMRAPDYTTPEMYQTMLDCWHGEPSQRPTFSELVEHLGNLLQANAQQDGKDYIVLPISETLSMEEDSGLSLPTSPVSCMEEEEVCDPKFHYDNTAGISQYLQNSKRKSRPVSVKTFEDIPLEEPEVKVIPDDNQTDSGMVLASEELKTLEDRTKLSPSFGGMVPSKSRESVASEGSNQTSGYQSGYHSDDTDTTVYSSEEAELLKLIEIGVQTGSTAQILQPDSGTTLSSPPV

Cc1cc(C(=O)Nc2cccc(S(=O)(=O)N3CCOCC3)c2)sc1-c1ccccc1
inhibition [1]: -4.9%

Cc1c(Cl)cccc1-c1ccc(C(=O)Nc2ccc(S(N)(=O)=O)cc2)o1
inhibition [1]: 76.4% | IC50 [2]: 260 nM | inhibition [3]: 18.4% | inhibition [4]: 17.4% | inhibition [5]: -2.3% | inhibition [6]: 51.7% | inhibition [7]: 5.2% | inhibition [8]: 32.4% | inhibition [9]: 27% | inhibition [10]: 17.3% | inhibition [11]: 7.7% | inhibition [12]: 23.7% | inhibition [13]: 0.1% | inhibition [14]: 13.8% | inhibition [15]: 24% | inhibition [16]: 15.3% | Activity (NCI-H1703): Non-toxic

O=C(Nc1cccc(NC(=O)c2ccc(Cl)cc2Cl)c1)c1ccc(-c2cccc([N+](=O)[O-])c2)o1
inhibition [1]: 16.8%

CC[C@@H]1CCc2c(sc(NC(=O)Nc3ccccc3)c2C(N)=O)C1
inhibition [1]: 79% | IC50 [2]: 10300 nM

Cc1ccc(NC=C2C(=O)c3ccccc3C2=O)cc1C
inhibition [1]: 43%

CC(C)C(=O)Nc1cccc(NC(=O)c2ccc(-c3ccc(Cl)cc3)o2)c1
inhibition [1]: 4.1%

CN1CCN(c2ccc(NC(=O)c3cccc(Cl)c3)cc2)CC1
inhibition [1]: 45%

Cc1cc(C(=O)Nc2ccc(C(=O)N3CCOCC3)cc2)sc1-c1ccccc1
inhibition [1]: 60.4%

CC(C)(C)c1ccc(/C=C/C(=O)Nc2ccccc2C(N)=O)cc1
inhibition [1]: 63% | IC50 [2]: 2740 nM

CC(=O)Nc1ccc(NC(=O)c2ccc(-c3ccc(Cl)c(Cl)c3)o2)cc1
inhibition [1]: 23.1%

CCC(=O)N1CCN(c2ccc(NC(=O)c3cc4ccccc4o3)cc2)CC1
inhibition [1]: 46%

O=C(Nc1ccc(Br)cc1)Nc1ccc(CN2CCCC2)cc1
inhibition [1]: 72% | IC50 [2]: 3510 nM

Cc1cc([N+](=O)[O-])ccc1-c1ccc(C(=O)Nc2cccc(Cl)c2N2CCOCC2)o1
inhibition [1]: 22.3%

O=C(Nc1nnc(/C=C/c2ccccc2)s1)c1ccco1
inhibition [1]: 70% | IC50 [2]: 3570 nM

Cc1ccc(-c2cc(C(=O)Nc3ccncc3)no2)cc1
inhibition [1]: 40%

CN1CCN(c2ccc3nc(-c4c(N)c5c(F)cccc5[nH]c4=O)[nH]c3c2)CC1 [DOVITINIB]
Activity (NCI-H1703): Toxic

CN(C)c1ccc(NC(=O)c2cc3ccccc3o2)cc1
inhibition [1]: 39%

Cc1cc(C(=O)Nc2ccccc2C(N)=O)sc1-c1ccccc1
inhibition [1]: 61.7%

Cc1ccccc1C(=O)N1CCN(c2ccc(NC(=O)c3ccc(-c4ccc(Cl)cc4)o3)cc2)CC1
inhibition [1]: 12.9%

COc1ccc(C(=O)/C=C/Nc2ccc(C)c(C)c2)cc1
inhibition [1]: 32%

CNS(=O)(=O)c1ccc(NC(=O)c2cc(C)c(-c3ccccc3)s2)cc1
inhibition [1]: 72.8%

Cc1cc([N+](=O)[O-])ccc1NC(=O)c1ccc(-c2cccc(Cl)c2Cl)o1
inhibition [1]: 4.9%

O=C(Nc1ccccc1Cl)c1ccc(-c2ccc(Cl)cc2)o1
inhibition [1]: 18.7%

CN1CCN(c2ccc(NC(=O)c3ccc(-c4cc(Cl)ccc4Cl)o3)cc2)CC1
inhibition [1]: 94% | IC50 [2]: 850 nM | IC50 [17]: 394 nM | IC50 [18]: 849 nM | IC50 [19]: 6180 nM | inhibition [3]: 17.4% | inhibition [4]: 19.5% | inhibition [5]: 4.3% | inhibition [6]: 9.3% | inhibition [7]: 21.6% | inhibition [8]: 54.8% | inhibition [9]: 93.8% | inhibition [10]: 20.7% | inhibition [11]: 3.4% | inhibition [12]: 3.5% | inhibition [13]: 64.9% | inhibition [14]: 75.7% | inhibition [20]: 11.7% | inhibition [15]: 46.9% | inhibition [16]: 34.9% | Activity (NCI-H1703): Non-toxic

O=C(NNC(=O)c1cc2ccccc2cc1O)NC1CCCCC1
inhibition [1]: 42%

O=C(Nc1cc(Cl)cc(Cl)c1)c1ccc(-c2ccc([N+](=O)[O-])cc2)o1
inhibition [1]: 8.9%

O=C1[C@H](Cc2ccc(O)cc2)N2C(=O)CCN(C(=O)NCc3ccccc3)[C@H]2CN1Cc1cccc2ccccc12
Activity (NCI-H1703): Non-toxic
